In patent publication US20100152188A1, “Novel Heterocyclic Compounds” (priority 2005, published 2010):

Columns and labels:
[1] = tested on: HDAC; test: HDAC inhibition; format: biochemical; conditions: for HDAC Inhibition 1 μM: compound at 1 μM; for HDAC Inhibition 10 μM: compound at 10 μM
[2] = tested on: NCIH460; test: Anti-cancer screen (MTT), NCIH460; format: cell-based; conditions: Homo sapiens, NCI-H460, 48 hours with compound, tested at 0.01-100 µM
How it was run: (§1)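 Cells (5000/well) in DMEM with 10% FBS were seeded 24 h, then exposed to compounds at 0.01, 0.1, 1, 10 and 100 µM in triplicate for 48 h at 37 °C. MTT was added for 3 h, formazan dissolved in DMSO and absorbance read at 570 nm; GI50, TGI and LC50 derived from % growth versus T0.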

[3] = tested on: HCT116; test: Anti-cancer screen (MTT), HCT116; format: cell-based; conditions: Homo sapiens, HCT-116, 48 hours with compound, tested at 0.01-100 µM
How it was run: as §1

[4] = tested on: MDAMB-231/U 251; test: Anti-cancer screen (MTT), MDAMB-231/U 251; format: cell-based; conditions: for CC50: 48 h, read-out: MDAMB-231/U 251 LC50; for GI50 / IC (TGI): 48 hours with compound, MTT, tested at 0.01-100 µM
How it was run: as §1

[5] = tested on: NCIH460, HCT116, MDAMB-231/U 251; test: Anti-cancer screen, mean GI50 over the cell lines; format: cell-based; conditions: in µM
How it was run: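 HCT116, NCIH460 and U251 cells (5000/well) were seeded for 24 h, then exposed in triplicate to 0.01, 0.1, 1, 10 and 100 µM final compound for 48 h. Viability was read by MTT (3 h, absorbance 570 nm), and percent growth was calculated against untreated controls and a T0 plate read at compound addition.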

| Compound | melting point [°C] | HDAC Inhibition 1 μM [1] | HDAC Inhibition 10 μM [1] | GI50 [2] [µM] | IC (TGI) [2] [µM] | LC50 [2] [µM] | GI50 [3] [µM] | IC (TGI) [3] [µM] | LC50 (concentration giving 50% net cell kill relative to T0) [3] [µM] | CC50 [4] [µM] | GI50 [4] [µM] | IC (TGI) [4] [µM] | Mean GI50 [5] |
| --- | --- | --- | --- | --- | --- | --- | --- | --- | --- | --- | --- | --- | --- |
| O=C(NCc1ccc(C(=O)N2CCN(c3ccccn3)CC2)cc1)OCc1cccs1 [Example 71, 2-Thienylmethyl{4-[(4-pyridin-2-ylpiperazin-1-yl)carbonyl]benzyl}carbamate] | 129.3 to 130.3 | 9.14 | 7.67 |  |  |  |  |  |  |  |  |  |  |
| O=C(NCc1ccc(C(=O)N[C@@H](Cc2ccc(O)cc2)C(=O)NO)cc1)OCc1cccs1 [Example 100, 2-Thienylmethyl[4-({[2-(hydroxyamino)-1-(4-hydroxybenzyl)-2-oxoethyl]amino}carbonyl)benzyl]carbamate] | 162.6 to 163.4 | 13.63 | 40.64 |  |  |  |  |  |  |  |  |  |  |
| O=C(CSC(F)F)Nc1cccc(NC(=O)c2ccc(CNC(=O)OCc3cccs3)cc2)c1 [Example 108, 2-Thienylmethyl[4-({[3-({[(difluoromethyl)thio]acetyl}amino)phenyl]amino}carbonyl)benzyl]carbamate] |  | −8.74 | −0.86 | 9.5 | > 100 | > 100 | 100 | > 100 | > 100 | > 100 | 5 | 15 | >100 |
| N/C(=N/O)c1ccc(NC(=O)OCc2cccs2)cc1 [Example 110, 2-thienylmethyl{4-[(E)-amino(hydroxyimino)-methyl]-phenyl}-carbamate] |  | 17.50 | 52.34 | > 100 | > 100 | > 100 | 80 | > 100 | > 100 | > 100 | 10 | > 100 | >100 |

Second part, led by results:

| melting point [°C] | Compound | HDAC Inhibition 1 μM [1] | HDAC Inhibition 10 μM [1] | GI50 [2] [µM] | IC (TGI) [2] [µM] | LC50 [2] [µM] | GI50 [3] [µM] | IC (TGI) [3] [µM] | LC50 (concentration giving 50% net cell kill relative to T0) [3] [µM] | CC50 [4] [µM] | GI50 [4] [µM] | IC (TGI) [4] [µM] | Mean GI50 [5] |
| --- | --- | --- | --- | --- | --- | --- | --- | --- | --- | --- | --- | --- | --- |
| 143.6 to 144.6 | O=C(NCc1ccc(C(=O)N2CCN(c3ncccn3)CC2)cc1)OCc1cccs1 [Example 72, 2-Thienylmethyl{4-[(4-pyrimidin-2-ylpiperazin-1-yl)carbonyl]benzyl}carbamate] | 8.08 | 8.40 |  |  |  |  |  |  |  |  |  |  |
| 90.6 to 91.5 | O=C(NCc1ccc(C(=O)N2CCC[C@H]2C(=O)NO)cc1)OCc1cccs1 [Example 99, 2-Thienylmethyl[4-({(2S)-2-[(hydroxyamino)carbonyl]pyrrolidin-1-yl}carbonyl)benzyl]carbamate] |  |  |  |  |  |  |  |  |  |  |  |  |
